Data: the supplement of paper PMC3493320
pIC50: −log10 of the molar value.

Each compound was assayed on NCI-H295R (assay: IC50 (antiproliferative, ATP content)). Settings: 48 h.
In short: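 Adrenocortical carcinoma cells (1500 per well) were seeded in serum-free ITS-supplemented DMEM in 1536-well plates and cultured overnight. Library compounds were then pin-transferred at 8 final concentrations from 0.6 nM to 46 µM, and plates were kept 48 h at 37 °C, 5% CO2. ATP was read as CellTiter-Glo luminescence after 20 min at room temperature and normalised to vehicle (0%) and positive control (100% inhibition). IC50 came from four-parameter logistic fits; compounds with no concentration response were recorded as above the top dose.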

SMILES | pIC50
CN/C(=C\[N+](=O)[O-])NCCSCc1ccc(CN(C)C)o1 | < 4.34
NS(=O)(=O)c1cc2c(cc1Cl)NC(CC1CCCC1)NS2(=O)=O (configuration not stated) | < 4.34
OC[C@H]1OC(O)[C@H](O)[C@@H](O)[C@H]1O (some centres not stated) | < 4.34
CCCCCCCCC(=O)NCc1ccc(O)c(OC)c1 | < 4.34
C[Se]CCC(N)C(=O)O (configuration not stated) | < 4.34
CC[N+](CC)(CC)CC.[Cl-] | < 4.34
NCC(CC(=O)O)c1ccc(Cl)cc1 (configuration not stated) | < 4.34
O[C@H]1[C@](CC2)(C)[C@@](C)(C)[C@@H]2C1 | < 4.34
O=C3N1/C(=C(\CS[C@@H]1[C@@H]3NC(=O)Cc2cccs2)C[n+]4ccccc4)C([O-])=O | < 4.34
CC(C)=CCC/C(C)=C/CO | < 4.34
O=C(O)C[CH2][Ge](=[O])[O][Ge](=[O])[CH2]CC(=O)O | < 4.34
CCNC(C)Cc1cccc(C(F)(F)F)c1 (configuration not stated) | < 4.34
N=C(N)NC(=O)c1nc(Cl)c(N)nc1N | < 4.34
CCCOC(=O)c1ccccc1 | < 4.34
Cl.c1ccc(CC2=NCCN2)cc1 | < 4.34
CCCCCN(CCCCC)C(=O)C(CCC(=O)[O-])NC(=O)c1ccc(Cl)c(Cl)c1.[Na+] (configuration not stated) | < 4.34
O=C([O-])CCC/C=C\C[C@@H]1[C@@H](/C=C/[C@@H](O)COc2cccc(Cl)c2)[C@H](O)C[C@@H]1O.[Na+] | < 4.34
CC/C=C\C/C=C\C/C=C\C/C=C\C/C=C\CCCC(=O)O | < 4.34
Nc1nc(=O)c2ncn(CCC(CO)CO)c2[nH]1 | < 4.34
C[C@@H]1[C@H](O)[C@@H](C)/C=C/C=C/C=C/C=C/C=C/C=C/C=C/[C@H](O[C@@H]2O[C@H](C)[C@@H](O)[C@H](N)[C@@H]2O)C[C@@H]2O[C@](O)(C[C@@H](O)C[C@@H](O)[C@H](O)CC[C@@H](O)C[C@@H](O)CC(=O)O[C@H]1C)C[C@H](O)[C@H]2C(=O)O | < 4.34
CC(=O)OCC1=C(C(=O)[O-])N2C(=O)[C@@H](NC(=O)CSc3ccncc3)[C@H]2SC1.[Na+] | < 4.34
COC(=O)C(CN)c1c[nH]c2ccc(OC)cc12.Cl (configuration not stated) | < 4.34
O=c1n(Cl)c(=O)n(Cl)c(=O)n1Cl | < 4.34

SMILES | pIC50
CNc1ccc(C(=O)CC(O)CCC(C)C2OC(=O)CC(O)CC(=O)CC(O)CC(O)CC(O)CC(O)CC3(O)CC(O)C(C(=O)OC)C(CC(O[C@@H]4O[C@H](C)[C@@H](O)[C@H](N)[C@@H]4O)/C=C/C=C/C=C/C=C/C=C/C=C/C=C/C2C)O3)cc1 (some centres not stated) | < 4.34
CCOCC(O)COc1ccc(NC(=O)CC[S+](C)C)cc1.Cc1ccc(S(=O)(=O)[O-])cc1 (configuration not stated) | < 4.34
CC(C)NCC(O)COc1ccc(CCOCC2CC2)cc1 (configuration not stated) | < 4.34
Cc1cc(O)c(C(C)C)cc1Cl | < 4.34
CNC1CCCN(c2c(F)cc3c(=O)c(C(=O)O)cn(C4CC4)c3c2OC)C1 (configuration not stated) | < 4.34
CC(C)(C)c1ccc(O)cc1 | < 4.34
OS(C1=C(C(C)C)C=C3C([C@@]2(C)CCC[C@]([C@@](O)=O)(C)[C@@]([H])2CC3)=C1)(=O)=O | < 4.34
CCN(CCO)CCCC(C)Nc1ccnc2cc(Cl)ccc12.O=S(=O)(O)O (configuration not stated) | < 4.34
C[C@@H]1C[C@H]2[C@@H]3CCC4=CC(=O)C=C[C@]4(C)[C@@]3(F)C(O)C[C@]2(C)[C@H]1C(=O)CO (some centres not stated) | < 4.34
O=[N+]([O-])c1cccc(S(=O)(=O)NCCNS(=O)(=O)c2cccc([N+](=O)[O-])c2)c1 | < 4.34
O[C@H](C)[C@@H](N[C@]([C@@H]2C[C@@H](CCC)CN2C)=O)[C@@H]1[C@H](O)[C@H](O)[C@@H](O)[C@@H](SC)O1.Cl | < 4.34
CS(=O)(=O)O.N[C@@H]1[C@H]2CN(c3nc4c(cc3F)c(=O)c(C(=O)O)cn4-c3ccc(F)cc3F)C[C@@H]12 | < 4.34
Cc1ccc(-c2ncc(Cl)cc2-c2ccc(S(C)(=O)=O)cc2)cn1 | < 4.34
CCc1cn([C@H]2C[C@H](O)[C@@H](CO)O2)c(=O)[nH]c1=O | < 4.34
CC(C)CCON=O | < 4.34
Nc1ccc(S(=O)(=O)Nc2ccc(Cl)nn2)cc1 | < 4.34
O=[N+]([O-])c1ccc(F)c([N+](=O)[O-])c1 | < 4.34
CC(C)NCC(O)c1cc(O)cc(O)c1.CC(C)NCC(O)c1cc(O)cc(O)c1.O=S(=O)(O)O (configuration not stated) | < 4.34
CC(C)c1ncc([N+](=O)[O-])n1C | < 4.34
CC(c1cc2ccccc2s1)N(O)C(N)=O (configuration not stated) | < 4.34
O=C(N[C@@H](CO)C(N[C@H](C(N[C@H](COC(C)(C)C)C(N[C@@H](CC(C)C)C(N[C@@H](CCCNC(N)=N)C(N6[C@H]([C@@](NNC(N)=O)=O)CCC6)=O)=O)=O)=O)CC4=CC=C(O)C=C4)=O)[C@@H](NC([C@@H](N[C@@]([C@@H](N5)CCC5=O)=O)CC3=CNC=N3)=O)CC1=CNC2=C1C=CC=C2.O=C(C)O | < 4.34
CCCNC(C)C(=O)Nc1ccccc1C.Cl (configuration not stated) | < 4.34
NCCCC[C@H](N[C@@H](CCc1ccccc1)C(=O)O)C(=O)N1CCC[C@H]1C(=O)O.O.O | < 4.34

SMILES | pIC50
Nc1ccc(S(N)(=O)=O)cc1 | < 4.34
c1ccc2ccccc2c1 | < 4.34
CCCCC/C=C\C/C=C\C/C=C\CCCCC(=O)O | < 4.34
C[N+](C)(C)CCCCCCCCCC[N+](C)(C)C.[Br-].[Br-] | < 4.34
CN(CCOc1ccc(CC2SC(=O)NC2=O)cc1)c1ccccn1 (configuration not stated) | < 4.34
CN(C)CCCSc1ccccc1NC(=O)/C=C/c1ccccc1 | < 4.34
NC[C@@H]1CC[C@@H](N)[C@@H](O[C@H]2[C@H](O)[C@@H](O[C@H]3O[C@H](CO)[C@@H](O)[C@H](N)[C@H]3O)[C@H](N)C[C@@H]2N)O1 | < 4.34
COc1cc2[nH]c(=O)[nH]c(=O)c2cc1OC | < 4.34
OCc1ccc(Cl)cc1Cl | < 4.34
Cl.FC(F)(F)c1cccc(C2=CCN(CCc3ccc4ccccc4c3)CC2)c1 | < 4.34
NC(=S)NS(=O)(=O)c1ccc(N)cc1 | < 4.34
COc1cc2c3cc1Oc1cc(ccc1O)C[C@@H]1c4c(cc(OC)c(O)c4Oc4ccc(cc4)C[C@@H]3N(C)CC2)CC[N+]1(C)C.Cl.[Cl-] | < 4.34
Cl.Cl.c1ccc(CNCCNCc2ccccc2)cc1 | < 4.34
CCCCC(CC)COC(=O)C(C#N)=C(c1ccccc1)c1ccccc1 (configuration not stated) | < 4.34
CNC[C@H](O)c1ccc(O)c(O)c1 | < 4.34
C=CCN1CC[C@]23c4c5ccc(O)c4O[C@H]2[C@@H](O)C=C[C@H]3[C@H]1C5.Cl | < 4.34
Cc1[nH]c(=O)c(C#N)cc1-c1ccncc1 | < 4.34
CCCCCCCCCCCCCCCCCC(=O)OC[C@@H](O)[C@H]1OC[C@H](O)[C@H]1O | < 4.34
O=S(=O)(O)c1ccc(O)cc1 | < 4.34
COP(=O)(OC)OC=C(Cl)Cl | < 4.34
O=CCCCC=O | < 4.34
CC(CCc1ccccc1)NC(C)C(O)c1ccc(O)cc1 (configuration not stated) | < 4.34
CC(CN(C)C)C(C)(O)Cc1ccc(Cl)cc1.Cl (configuration not stated) | < 4.34

SMILES | pIC50
O=C(O)COc1ccccc1 | < 4.34
CCOP(=S)(OCC)Oc1ccc2c(C)c(Cl)c(=O)oc2c1 | < 4.34
C#C[C@]1(O)CC[C@H]2[C@@H]3CCC4=CC(=O)CC[C@@H]4[C@H]3CC[C@@]21CC | < 4.34
CCn1cc(C(=O)O)c(=O)c2cnc(N3CCCC3)nc21 | < 4.34
ClC3=C(C=CC5=C3)OC1=CC([C@@](C(N[C@@](C8=CC%11=C(O)C=C8)([H])C(N[C@H]([C@](N[C@@H]([C@@](O)=O)C%12=C%11C(O[C@H]%13O[C@H](CO)[C@@H](O)[C@H](O)[C@@H]%13O)=CC(O)=C%12)=O)[C@@H]5O[C@@]6([H])[C@H](NC(C)=O)[C@@H](O)[C@H](O)[C@@H](CO)O6)=O)=O)([H])NC([C@@](C9=CC(O)=CC(OC%10=C(O)C=CC([C@@H]%14N)=C%10)=C9)([H])NC([C@H](NC%14=O)C7)=O)=O)=CC(OC4=CC=C7C=C4Cl)=C1O[C@H]2[C@H](NC(CC\C=C/CCCCC)=O)[C@@H](O)[C@H](O)[C@@H](CO)O2 | < 4.34
CN1CCN(C2=Nc3ccccc3Oc3ccc(Cl)cc32)CC1.O=C(O)CCC(=O)O | < 4.34
CC(C)NCC(O)COc1ccc(COCCOC(C)C)cc1.CC(C)NCC(O)COc1ccc(COCCOC(C)C)cc1.O=C(O)/C=C/C(=O)O (configuration not stated) | < 4.34
CCCC(C)(COC(N)=O)COC(=O)NC1CC1 (configuration not stated) | < 4.34
CC(=O)Nc1ccc(CC(=O)O)cc1 | < 4.34
CCCCCCCCCCCCCCCCCCCCCCO | < 4.34
C[S+](CC[C@H](N)C(=O)O)C[C@H]1O[C@@H](n2cnc3c(N)ncnc32)[C@H](O)[C@@H]1O.[Cl-] (some centres not stated) | < 4.34
CC(C)(C)C(=O)OCOC(=O)[C@@H]1N2C(=O)[C@@H](NC(=O)[C@H](N)c3ccccc3)[C@H]2SC1(C)C | < 4.34
N#CN | < 4.34
CNC(=O)OCc1cccc(COC(=O)NC)n1 | < 4.34
O=[C@]([O-])[C@@H]2N1C([C@@]([H])(N3C(C)(C)NC(C4=CC=CC=C4)C3=O)[C@]([H])1SC(C)2C)=O.[K+] (some centres not stated) | < 4.34
CN1CCC(=C2c3ccccc3CCc3sccc32)CC1 | < 4.34
CCn1cc(C(=O)O)c(=O)c2ccc(C)nc21 | < 4.34
NC[C@H]1O[C@H](O[C@H]2[C@H](O)[C@@H](O[C@H]3O[C@H](CO)[C@@H](O)[C@H](N)[C@H]3O)[C@H](N)C[C@@H]2N)[C@H](N)C[C@@H]1O | < 4.34
O=[C@](O)[C@H]2N(C([C@H](C)N[C@H]([C@@](OCC)=O)CCC3=CC=CC=C3)=O)[C@@]1([H])CCCC[C@@]([H])1C2 | < 4.34
CC[N+](C)(CC)CCOC(=O)C(O)(c1ccccc1)c1ccccc1.[Br-] | < 4.34
COc1cc2ncnc(Nc3ccc(F)c(Cl)c3)c2cc1OCCCN1CCOCC1 | < 4.34
C[C@H](Cc1ccc(O)c(O)c1)[C@@H](C)Cc1ccc(O)c(O)c1 | < 4.34
O=C([O-])CC(O)C(=O)[O-].[Na+].[Na+] (configuration not stated) | < 4.34
